A short description of data set [1]: Determination of water solubility of corrosion inhibitors in 20% hydrochloric acid solution. Conditions: 0.1 g corrosion inhibitor in 200 mL of 20% hydrochloric acid solution. In kind it is physicochemical. The procedure:
(§1) The process is as follows: weigh […] of the corrosion inhibitor of the present invention, and dissolve in 200 mL of 20% hydrochloric acid solution, respectively, stir and observe its dissolution. Prepare 20% hydrochloric acid solution system adding with iron ion stabilizer citric acid, clay stabilizer potassium chloride and discharge aiding agent OP-10 or fluorocarbon surfactant, respectively, and then weigh 0.1 g of the corrosion inhibitor of the present invention and add them to the 20% hydrochloric acid solution system, to observe the compatibility.

A short description of data set [2]: 4 h corrosion test at 90° C. in 20% hydrochloric acid. The following applies: P110 carbon steel, 1000 ppm inhibitor. The procedure:
The corrosion inhibition performance of corrosion inhibitors in the embodiments 1 to 4 is determined by a 4 h corrosion test at 90° C. using 20% hydrochloric acid as a corrosive medium and P110 carbon steels. The amount of corrosion inhibitors is 1000 ppm.

The nature of data set [3]: Compatibility with 20% hydrochloric acid system containing iron ion stabilizer, clay stabilizer and discharge aiding agent. The following applies: 0.1 g in 20% hydrochloric acid system with citric acid, potassium chloride and OP-10 or fluorocarbon surfactant; 90° C. Format: physicochemical. The procedure: as §1, with “The water solubility of the corrosion inhibitor prepared by Embodiments 1 to 4 and its compatibility with the system containing the iron ion stabilizer, clay stabilizer and discharge aiding agent under 90° C. are determined. The” for “The”

As for `OC(C[N+](Cc1ccccc1)(Cc1ccccc1)Cc1ccccc1)C[N+]1(Cc2ccccc2)C=Cc2ccccc21` (stereo not drawn) [Embodiment 2], the “Water solubility and appearance” value in data set [1] is “Soluble colorless”. Besides, in data set [2], the Corrosion rate is given as 45.79 gm^−2h^−1 and the Inhibition rate came to 93.68%. Also, the Compatibility entry in data set [3] is “Uniform and transparent,”.

For `OC(C[N+]1(Cc2ccc3ccccc3c2)CCOCC1)C[N+](Cc1ccccc1)(Cc1ccccc1)Cc1ccc2ccccc2c1` (stereo not drawn) [Embodiment 1], in data set [1], the “Water solubility and appearance” value is given as “Soluble colorless”. In data set [2], this compound returned a Corrosion rate of 34.87 gm^−2h^−1 and an Inhibition rate of 95.18%. Also, the Compatibility entry in data set [3] is “Uniform and transparent,”.

For `CCCCCC[N+](Cc1ccccc1)(Cc1ccccc1)CC(O)C[N+](CCCCCC)(Cc1ccccc1)CC(O)C[N+](CCCCCC)(Cc1ccccc1)Cc1ccccc1` (stereo not drawn) [Embodiment 3], the “Water solubility and appearance” value in data set [1] is on record as “Soluble colorless”. In data set [2], the Corrosion rate was 29.86 gm^−2h^−1 and the Inhibition rate came out at 95.88%. The Compatibility entry in data set [3] is “Uniform and transparent,”.

Values taken from patent US10889748B2, “Process for preparing dibenzylamine quaternary ammonium salt high-temperature resistant corrosion inhibitor and applications thereof” (Southwest Petroleum University, priority 2018, dated 2021).
